Measured values reported in PMC6286348, “Inhibitor binding mode and allosteric regulation of Na^+-glucose symporters” (Nature Communications, 2018).
Residue numbers refer to the chain shown, from its start.

Assays:
hSGLT2 A395T = molecular target: T1, hSGLT2 A395T (Homo sapiens, UniProt P31639, A395T); test: cell-based; settings: poor expression; n = 4 oocytes
T1 construct: expressed in transfected cells; host or cells: Xenopus laevis oocytes injected with hSGLT2 A395T cRNA and MAP17 cRNA
Method: (§1) Xenopus laevis (Nasco) oocytes (V–VI) were prepared as previously described[20] and injected with 50 nl of cRNA (1 μg/μl). […] Briefly, oocytes were incubated for 30 min in the presence of 50 μM αMDG (5 μM [^14C]αMDG) in a buffer containing (in mM) 100 NaCl, 2 KCl, 1 MgCl2, 1 CaCl2, and 10 N-(2-hydroxyethyl)piperazine-N′-(2-ethanesulfonic acid) (HEPES)/Tris (pH 7.5). After incubation, oocytes were rinsed thoroughly with ice-cold buffer containing (mM) 100 choline Cl^–, 2 KCl, 1 MgCl2, 1 CaCl2, and 10 HEPES/Tris (pH 7.5), individually lysed with 5% sodium dodecyl sulfate, and assayed for radioactivity.
Injected oocytes were incubated at 18 °C, and after 3–4 days, two electrode voltage clamp experiments were performed as previously described. Briefly, SGLT inward glucose currents were measured as a function of the external Na^+ (0–100 mM NaCl), sugar (0–100 mM αMDG), and inhibitors (0.001–100 μM). Steady-state and hSGLT1 capacitive currents were recorded using voltage steps from a holding voltage, Vh of −60 mV, to voltages in the range of −180 to +50 mV in 20 mV increments. The apparent affinity of αMDG, K0.5, was estimated from plots of the inward current as a function of the external αMDG concentration. Under our experimental conditions, K0.5 is a close approximation of the αMDG binding constant to the Na^+-bound outward conformation of SGLT. The apparent affinity for Na^+, K0.5, was estimated from plots of the αMDG inward current as a function of external Na^+ concentration. For hSGLT1 the interpretation of K0.5 is more complex owing to the presence of two Na^+ binding sites. In this case, the K0.5 is a lumped coefficient for Na^+ binding to the two sites in the outward-facing hSGLT1 conformation. […] The Na^+-to-αMDG stoichiometry was determined from the reversal potential measurements using the Gibbs free energy as previously described. The stoichiometry determinations were reinforced by estimates of αMDG and Na^+ Hill coefficients, and in some cases, by measurement of ^22Na and [^14C]αMDG uptakes under voltage clamp, [21].

hSGLT1 S393A/C = system: hSGLT1 S393A/C; set-up: method as in PMID 22159082; settings: oocytes, 22 °C; cited from earlier work
hSGLT1 S392A/C = system: hSGLT1 S392A/C; set-up: method as in PMID 22159082; settings: oocytes, 22 °C; cited from earlier work
hSGLT1 F101C = system: hSGLT1 F101C; set-up: method as in PMID 22159082; settings: oocytes, 22 °C; cited from earlier work
hSGLT1 F453C = system: hSGLT1 F453C; set-up: method as in PMID 22159082; settings: oocytes, 22 °C; cited from earlier work
hSGLT1 wild-type = molecular target: T2, hSGLT1 wild-type (Homo sapiens, UniProt P13866); test: SGLT current measurement (two electrode voltage clamp) in oocytes, hSGLT1 wild-type; assay type: cell-based; settings: apparent affinity from αMDG current vs external Na^+, 10 mM αMDG, 22 °C
T2 construct: expressed in transfected cells; host or cells: Xenopus laevis oocytes injected with cRNA
T2 sequence (P13866 1-664): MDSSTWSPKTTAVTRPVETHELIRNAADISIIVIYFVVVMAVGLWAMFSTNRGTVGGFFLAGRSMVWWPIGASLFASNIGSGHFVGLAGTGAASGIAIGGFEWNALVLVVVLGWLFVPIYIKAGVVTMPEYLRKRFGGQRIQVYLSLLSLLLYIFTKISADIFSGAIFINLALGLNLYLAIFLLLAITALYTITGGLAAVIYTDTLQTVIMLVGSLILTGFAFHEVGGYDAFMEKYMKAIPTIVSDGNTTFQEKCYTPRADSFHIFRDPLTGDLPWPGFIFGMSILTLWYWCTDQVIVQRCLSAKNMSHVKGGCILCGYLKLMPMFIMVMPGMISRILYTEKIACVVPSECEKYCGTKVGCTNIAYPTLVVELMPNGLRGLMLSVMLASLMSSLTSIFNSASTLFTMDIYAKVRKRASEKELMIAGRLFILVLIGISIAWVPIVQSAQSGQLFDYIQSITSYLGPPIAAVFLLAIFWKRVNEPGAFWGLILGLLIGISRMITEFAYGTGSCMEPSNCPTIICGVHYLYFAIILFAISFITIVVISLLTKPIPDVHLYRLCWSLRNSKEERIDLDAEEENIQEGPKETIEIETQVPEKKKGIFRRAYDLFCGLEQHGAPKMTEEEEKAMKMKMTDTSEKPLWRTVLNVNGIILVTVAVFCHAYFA
Method: as §1
Injected oocytes were incubated at 18 °C, and after 3–4 days, two electrode voltage clamp experiments were performed as previously described. Briefly, SGLT inward glucose currents were measured as a function of the external Na^+ (0–100 mM NaCl), sugar (0–100 mM αMDG), and inhibitors (0.001–100 μM). Steady-state and hSGLT1 capacitive currents were recorded using voltage steps from a holding voltage, Vh of −60 mV, to voltages in the range of −180 to +50 mV in 20 mV increments. The apparent affinity of αMDG, K0.5, was estimated from plots of the inward current as a function of the external αMDG concentration. […] The Na^+-to-αMDG stoichiometry was determined from the reversal potential measurements using the Gibbs free energy as previously described. […]

hSGLT1 T287C = molecular target: T3, hSGLT1 T287C (Homo sapiens, UniProt P13866, T287C); set-up: method as in PMID 29087341; settings: oocytes, 22 °C; cited from earlier work
T3 construct: expressed in transfected cells; host or cells: Xenopus laevis oocytes injected with cRNA
T3 sequence (P13866 1-664 T287C): T2 sequence (P13866 1-664) with T287C

T1 sequence (Q13113 whole entry): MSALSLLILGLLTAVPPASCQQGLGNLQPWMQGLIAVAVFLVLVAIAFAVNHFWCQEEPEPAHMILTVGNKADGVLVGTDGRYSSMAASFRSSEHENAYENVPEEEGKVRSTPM
T1 sequence (P31639 whole entry A395T): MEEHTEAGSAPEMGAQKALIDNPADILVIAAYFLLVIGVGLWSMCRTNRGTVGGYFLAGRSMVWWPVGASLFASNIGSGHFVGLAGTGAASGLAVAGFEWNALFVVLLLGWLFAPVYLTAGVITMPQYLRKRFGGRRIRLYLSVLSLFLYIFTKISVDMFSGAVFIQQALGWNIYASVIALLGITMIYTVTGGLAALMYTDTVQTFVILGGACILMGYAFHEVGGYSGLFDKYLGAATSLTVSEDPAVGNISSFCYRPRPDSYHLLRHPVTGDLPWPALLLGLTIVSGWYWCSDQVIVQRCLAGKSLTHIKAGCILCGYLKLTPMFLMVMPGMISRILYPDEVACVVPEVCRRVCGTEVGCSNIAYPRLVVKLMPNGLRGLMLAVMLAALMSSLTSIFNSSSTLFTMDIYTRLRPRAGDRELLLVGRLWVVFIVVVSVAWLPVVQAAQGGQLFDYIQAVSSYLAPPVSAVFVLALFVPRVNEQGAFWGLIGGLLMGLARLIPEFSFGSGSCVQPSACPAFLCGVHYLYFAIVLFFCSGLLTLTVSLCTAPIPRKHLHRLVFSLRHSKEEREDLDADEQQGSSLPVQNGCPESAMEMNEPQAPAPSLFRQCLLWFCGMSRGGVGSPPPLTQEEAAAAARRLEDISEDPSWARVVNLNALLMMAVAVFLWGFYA

[Na+] [Na^+]
K0.5 Na^+ (hSGLT2 A395T): 30 ± 10 mM | K0.5 Na^+ (hSGLT1 S393A/C): 32 ± 3[20] mM | K0.5 Na^+ (hSGLT1 S392A/C): 122 ± 12[20] mM | K0.5 Na^+ (hSGLT1 F101C): 9 ± 1[20] mM | K0.5 Na^+ (hSGLT1 F453C): 21 ± 1[20] mM | K0.5 Na^+ (hSGLT1 wild-type): 36 ± 1 mM | K0.5 Na^+ (hSGLT1 T287C): 6 ± 0.2[19] mM
